For data set [1], the system named is KB. The experiment in a line: Inhibition of colony formation in human KB cells at 100 nM after 10 to 14 days by methylene blue staining based assay. In kind it is functional, cell-based.
Data set [2] has as its system KB. The experiment in a line: Antiproliferative activity against human KB cells assessed as reduction in cell viability after 72 hrs by MTT assay. In kind it is functional, cell-based.
Data set [3] concerns A549. The experiment in a line: cells. To be noted: Homo sapiens, A549, 72 h.
Description: Antiproliferative activity against human A549 cells assessed as reduction in cell viability after 72 hrs by MTT assay
In data set [4] the test system is SW-620. The experiment in a line: Antiproliferative activity against human SW620 cells assessed as reduction in cell viability after 72 hrs by MTT assay. In kind it is functional, cell-based. To be noted: SW-620, 72 h. On the technique in general: Formazan colour is commonly taken as a measure of viable cells.
The next data set concerns the target T1, Dihydrofolate reductase (Homo sapiens, UniProt P00374).
T1 sequence (P00374 whole entry): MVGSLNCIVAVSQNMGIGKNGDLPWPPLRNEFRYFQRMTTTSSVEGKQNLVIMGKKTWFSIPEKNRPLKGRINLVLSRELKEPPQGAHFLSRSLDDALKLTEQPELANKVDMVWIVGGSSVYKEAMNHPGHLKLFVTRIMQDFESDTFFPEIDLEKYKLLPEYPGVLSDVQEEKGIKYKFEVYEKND
The data set is described as follows: Inhibition of recombinant human DHFR using dihydrofolic acid as substrate in presence of NADPH after 15 mins by microplate reader analysis.

A further data set has as its system HUVEC. The experiment in a line: Cytotoxicity against HUVEC assessed as reduction in cell viability after 72 hrs by MTT assay. In kind it is cell-based. To be noted: Homo sapiens.
In data set [5] the test system is KB. To be noted: Homo sapiens, 10 nM.
Description: Inhibition of colony formation in human KB cells at 10 nM after 10 to 14 days by methylene blue staining based assay
Data set [6] concerns A549. The data set is described as follows: Potency index, ratio of IC50 for pemetrexed to IC50 for test compound for antiproliferative activity against human A549 cells after 72 hrs by MTT assay. In kind it is functional.
For data set [7], the system named is KB. The experiment in a line: Cell cycle arrest in human KB cells assessed as accumulation at G1 phase at 10 uM after 96 hrs by RNase-1 A/propidium iodide staining-based flow cytometric analysis (reference value: 42.69%). In kind it is functional. In general terms: A flow cytometer gives signals particle by particle.
Data set [8] is described as follows: Selectivity index, ratio of IC50 for HUVEC to IC50 for human KB cells. In kind it is toxicity. To be noted: HUVEC and KB cells, read-out: Ratio IC50.
Data set [9] deals with KB. The experiment in a line: Inhibition of colony formation in human KB cells at 100 nM after 10 to 14 days by methylene blue staining based assay relative to untreated control. In kind it is functional.
Data set [10] relates to KB. The experiment in a line: Cell cycle arrest in human KB cells assessed as accumulation at S phase at 10 uM after 96 hrs by RNase-1 A/propidium iodide staining-based flow cytometric analysis (reference value: 48.26%). In kind it is functional.
The test system of data set [11] is KB. The experiment in a line: Antiproliferative activity against human KB cells at 0.01 to 1 uM in presence of adenosine. In kind it is functional, cell-based.
Data set [12] has as its system A549. The experiment in a line: Potency index, ratio of IC50 for methotrexate to IC50 for test compound for antiproliferative activity against human A549 cells after 72 hrs by MTT assay. In kind it is functional.
Data set [13] concerns KB. The experiment in a line: Antiproliferative activity against human KB cells at 0.01 to 1 uM in presence of thymidine. In kind it is functional, cell-based.
For data set [14], the system named is KB. The experiment in a line: Antiproliferative activity against human KB cells at 0.01 to 1 uM in presence of AICA. In kind it is functional, cell-based.
In data set [15] the test system is KB. The experiment in a line: Potency index, ratio of IC50 for pemetrexed to IC50 for test compound for antiproliferative activity against human KB cells after 72 hrs by MTT assay. In kind it is functional.
Data set [16] concerns SW-620. The experiment in a line: Potency index, ratio of IC50 for pemetrexed to IC50 for test compound for antiproliferative activity against human SW620 cells after 72 hrs by MTT assay. In kind it is functional.
Data set [17] relates to KB. The experiment in a line: Cell cycle arrest in human KB cells assessed as accumulation at G2 phase at 10 uM after 96 hrs by RNase-1 A/propidium iodide staining-based flow cytometric analysis (reference value: 9.06%). In kind it is functional.
Data set [18] deals with KB. The data set is described as follows: Antiproliferative activity against human KB cells in presence of AICA and thymidine. In kind it is functional, cell-based.
For data set [19], the system named is KB. The experiment in a line: Antiproliferative activity against human KB cells in presence of AICA. In kind it is functional, cell-based.
In data set [20] the test system is KB. The experiment in a line: Antiproliferative activity against human KB cells in presence of thymidine. In kind it is functional, cell-based.
For data set [21], the system named is KB. The data set is described as follows: Antiproliferative activity against human KB cells in presence of adenosine. In kind it is functional, cell-based.
Data set [22] deals with T2, Dihydrofolate reductase (Homo sapiens) (UniProt P00374).
T2 sequence (whole entry): T1 sequence (P00374 whole entry)
The data set is described as follows: Potency index, ratio of IC50 for methotrexate to test compound IC50 for inhibition of recombinant human DHFR.

SMILES strings stand for the structures. Active and inactive are the calls of the source. The rule behind the calls is not given here.

Usually inhibition stands for the change of the read-out against control, counted positive when it falls. One may read the IC50 as the concentration needed to halve the response being measured.

With `Nc1nc2[nH]c(CCNC(=O)c3cccc(C(=O)NCc4cccnc4)c3)cc2c(=O)[nH]1`, the inhibition result in the data set on KB [1] is “Active”. Also, the IC50 is 88.8 nM with KB [2], not below 1000 nM in the data set with A549 [3], 154 nM with SW-620 [4] and 53.4 nM at Dihydrofolate reductase.
For `Nc1nc2[nH]c(CCNC(=O)c3ccccc3C(=O)NCc3ccncc3)cc2c(=O)[nH]1`, the inhibition result in the data set on KB [1] was “Active”. The concentration for half-maximal inhibition (IC50) with KB [2] was 89.9 nM; in the data set with A549 [3] it was not below 1000 nM; in the data set with SW-620 [4], not below 1000 nM; on Dihydrofolate reductase, not below 1000 nM.
As to `Nc1nc2[nH]c(CCNC(=O)c3ccccc3C(=O)NCc3cccnc3)cc2c(=O)[nH]1`, in the data set with KB [1], the inhibition entry is “Active”. Also, the half-inhibitory concentration (IC50) in the data set on KB [2] was 56.5 nM; in the data set with A549 [3], not below 1000 nM; in the data set with SW-620 [4], not below 1000 nM; at Dihydrofolate reductase, not below 1000 nM.
As for `CN(Cc1cnc2nc(N)nc(N)c2n1)c1ccc(C(=O)N[C@@H](CCC(=O)O)C(=O)O)cc1` [METHOTREXATE], the concentration for half-maximal inhibition (IC50) in the data set with SW-620 [4] worked out at 13.1 nM; in the data set on HUVEC, 6130 nM. Also, the inhibition result in the data set with KB [5] is “Active”.
As for `Nc1nc2[nH]c(CCNC(=O)c3ccccc3C(=O)NCc3ccccn3)cc2c(=O)[nH]1`, the inhibition result with KB [1] was “Active”. Besides, the half-inhibitory concentration (IC50) with KB [2] is 90.5 nM; in the data set on A549 [3], not below 1000 nM; in the data set with SW-620 [4] it was not below 1000 nM; at Dihydrofolate reductase it was not below 1000 nM.
As for `Nc1nc2[nH]c(CCNC(=O)c3ccc(C(=O)NCc4ccncc4)cc3)cc2c(=O)[nH]1`, the “Ratio IC50” value stood at 104 with A549 [6], 81 in the data set with A549 [12], 7 with KB [15] and 7 with SW-620 [16]. For the same compound, the Activity with KB [7] was found to be 56.59%; with KB [10], 33.74%; in the data set on KB [17] it was 9.66%. In addition, the selectivity ratio in data set [8] was 867. Also, the IC50 in the data set on KB [2] is 10.2 nM; with A549 [3] it was 12.1 nM; in the data set with SW-620 [4], 15 nM; at Dihydrofolate reductase it was 49 nM; with HUVEC it was 8830 nM. The same compound returned an inhibition at 0.1 µM in the data set with KB [9] of 80%. In addition, the outcome with KB [11], in the data set on KB [13] and in the data set on KB [14] was Active.
Consider `Nc1nc2[nH]c(CCNC(=O)c3cccc(C(=O)NCc4ccncc4)c3)cc2c(=O)[nH]1`, for which, in the data set on KB [1], the inhibition entry was “Active”. The IC50 in the data set with KB [2] is 25 nM; in the data set on A549 [3], not below 1000 nM; in the data set with SW-620 [4] it was 60.1 nM; at Dihydrofolate reductase it was 65.9 nM.
For `Nc1nc2[nH]cc(CCc3ccc(C(=O)N[C@@H](CCC(=O)O)C(=O)O)cc3)c2c(=O)[nH]1` [PEMETREXED], the inhibition entry with KB [1] was “Active”. The Activity with KB [7] was found to be 72.11%; in the data set on KB [10] it was 27.89%; in the data set with KB [17], 0%. The concentration for half-maximal inhibition (IC50) in the data set with SW-620 [4] worked out at 80.2 nM; in the data set with HUVEC, 1730 nM. The outcome in the data set on KB [18], in the data set with KB [19], in the data set with KB [20] and in the data set with KB [21] was inactive.
Regarding `Nc1nc2[nH]c(CCNC(=O)c3cccc(C(=O)NCc4ccccn4)c3)cc2c(=O)[nH]1`, the inhibition entry in the data set on KB [1] was “Active”. Moreover, the IC50 in the data set with KB [2] was 102 nM; with A549 [3], not below 1000 nM; in the data set with SW-620 [4], not below 1000 nM; on Dihydrofolate reductase, 9.28 nM. In addition, in [22], the Ratio IC50 was 2.6.
Turning to `Nc1nc2[nH]c(CCNC(=O)c3ccc(C(=O)NCc4ccccn4)cc3)cc2c(=O)[nH]1`, the inhibition result with KB [1] is “Active”. Moreover, the Activity with KB [7] came out at 65.92%; in the data set with KB [10], 24.75%; in the data set on KB [17] it was 9.33%. The selectivity ratio in [8] amounted to 257. The concentration for half-maximal inhibition (IC50) in the data set with KB [2] was 23 nM; in the data set on A549 [3], 18.9 nM; in the data set on SW-620 [4] it was 15.2 nM; at Dihydrofolate reductase, 29.3 nM; in the data set with HUVEC, 5930 nM. Also, the result with KB [11], with KB [13] and in the data set on KB [14] was Active.
Consider `Nc1nc2[nH]c(CCNC(=O)c3ccc(C(=O)NCc4cccnc4)cc3)cc2c(=O)[nH]1`, for which the inhibition entry in the data set on KB [1] is “Active”. Also, the Activity with KB [7] was found to be 38.38%; in the data set with KB [10], 55.36%; in the data set with KB [17] it was 6.26%. The selectivity ratio in data set [8] came out at 265. Moreover, the IC50 in the data set on KB [2] was 11.2 nM; in the data set on A549 [3] it was 12.4 nM; in the data set with SW-620 [4] it was 13.1 nM; at Dihydrofolate reductase it was 37.9 nM; with HUVEC it was 2970 nM. In addition, the result with KB [11], in the data set with KB [13] and in the data set on KB [14] was Active.

Source of the values: ChEMBL document CHEMBL4359818, “Targeting dihydrofolate reductase: Design, synthesis and biological evaluation of novel 6-substituted pyrrolo[2,3-d]pyrimidines as nonclassical antifolates and as potential antitumor agents” (Eur J Med Chem, 2019).
